Test system: inverted membrane vesicles of M. smegmatis mc^24517 overexpressing NDH2 (TB-ndh)
Assay: NADH oxidation in inverted membrane vesicles, TB-ndh
Format: biochemical
Conditions: read-out: EC50 of activation of NADH oxidation, TB-ndh IMV

Row | SMILES | EC50
1 | CCCCn1c2c([n+](C3CCC4(CCCCC4)CC3)c1C)C(=O)c1ccccc1C2=O.[Br-] [Compound 44, reference compound] | 3740 nM
2 | CCCCCCCCn1c2c([n+](CCCC)c1C)C(=O)c1ccccc1C2=O.[Br-] [Compound 45, reference compound] | 200 nM
3 | Cc1nc2c(n1CCCCCCCCCCC[P+](c1ccccc1)(c1ccccc1)c1ccccc1)C(=O)c1ccccc1C2=O.[I-] [Compound 7] | 1400 nM

Reference: article PMC9749938, “Alkyltriphenylphosphonium turns naphthoquinoneimidazoles into potent membrane depolarizers against mycobacteria” (RSC Medicinal Chemistry, 2022)
